Measured values as given in patent US6447768B1, “Methods of gene therapy with a DNA sequence encoding NOS” (priority 1998, dated 2002).

System: Human foreskin microvascular endothelial cells (MVEC)
Assay: Angiogenesis assay: capillary-like tube formation of MVEC in fibrin matrix
Type: cell-based
Settings: for formation of capillary-like structures in fibrin matrices: uninfected MVEC, in combination with TNF-α
Protocol: Human foreskin microvascular endothelial cells (MVEC) were grown to confluency in M199 medium supplemented with 10% human serum (HS), 10% new-born calf serum (NBCS), penicillin and streptomycin and infected with 3.10_ pfu/ml Ad.IG.CMV.eNOS for 1 hour in M199 +2% NBCS. Medium was refreshed and cells were incubated overnight in M199+10% HS+10% NBCS.
Angiogenesis was analysed as described in Koolwijk et al. J. Cell Biol. 132 p1177-1188 (1996). Briefly, highly confluent MVEC were detached, seeded in a 1.25:1 split ratio on human fibrin matrices as cultures consisting either of uninfected cells, 100% infected cells or mixed cultures consisting of 10% infected/90% uninfected cells and cultured in M199 medium supplemented with 10% human serum (HS), 10% new-born calf serum (NBCS), penicillin and streptomycin.
Invading cells and the formation of tubular structures of endothelial cells in the three-dimensional fibrin matrix were analysed by phase contrast microscopy. After 7 days the total length of the tube-like structure of six randomly chosen microscopic fields per well (7.3 mm^2/field=43.8% of the total well) was measured using a Nikon FXA microscope equipped with a monochrome CCD camera (MX5) connected to a computer with Optimas image analysis software, and expressed as total tube length/cm^2.
For the angiogenesis experiments incubations are performed with cultures of uninfected cells, 10% infected MVEC and of 100% infected MVEC.
All incubations have been performed in the presence of 1 ng/ml TNF-α. Specific conditions tested in the presence and absence of virus were control, +bFGF: 5 ng/ml, +VEGF: 25 ng/ml, +bFGF+L-NAME: 5 ng/ml, 100 iM

Row | Compound | effect on tube formation (100 μM, bFGF+TNF-α stimulated cultures, with and without NOS infected cells) | formation of capillary-like structures in fibrin matrices
1 | COC(=O)[C@@H](N)CCCNC(=N)N[N+](=O)[O-] [L-NAME] | small reduction of tube formation | –
2 | bFGF: basic Fibroblast Growth Factor | – | formed capillary-like structures
3 | VEGF | – | formed capillary-like structures
